Measured values published in patent publication US20260216207A1, “7-CARBONYLSTAUROSPORINE DERIVATIVE, PREPARATION METHOD THEREFOR, AND USE THEREOF” (HANGZHOU KEXING BIOCHEM. CO., LTD., priority 2023, published 2026).
pIC50: −log10 of the molar value. “Also recorded” adds a separate entry of the source.

What was measured:
Format in all cases: biochemical
PKCη = PKCη (Homo sapiens, UniProt P24723); experiment: HTRF KinEASE kinase assay, PKCη (kinase selectivity); settings: HTRF KinEASE kit, 3 duplicate wells; read-out: PKCη IC50
Protocol: (§1) Inhibitory activities against PIM-1, TRKA, TRKB, FLT3, PKCδ, PKCε, PKCη, PAK4, PLK1, ROCK2, and IKKβ kinases were all determined using an HTRF®KinEASE™ kinase assay kit based on a time-resolved fluorescence technology. 7-carbonylstaurosporine (7OSTA) and TP-3654 were used as positive controls, and 3 duplicate wells were set in parallel. […] A signal ratio was calculated as F2/F1×10000, and then an IC50 value was calculated using Graphpad Prism 8 software.

TRKB = TRKB (Homo sapiens, UniProt Q16620); experiment: HTRF KinEASE kinase assay, TRKB (kinase selectivity); settings: HTRF KinEASE kit, 3 duplicate wells; read-out: TRKB IC50
Protocol: as §1

PIM-1 kinase = PIM-1 kinase (Homo sapiens, UniProt P11309); experiment: HTRF KinEASE kinase assay, PIM-1 inhibitory activity
Description: Inhibitory activities against PIM-1, TRKA, TRKB, FLT3, PKCδ, PKCε, PKCη, PAK4, PLK1, ROCK2, and IKKβ kinases were all determined using an HTRF®KinEASE™ kinase assay kit based on a time-resolved fluorescence technology. 7-carbonylstaurosporine (7OSTA) and TP-3654 were used as positive controls, and 3 duplicate wells were set in parallel. Specific operation steps are as follows. • (1) A kinase buffer was formulated and then used to formulate compounds to be tested, a positive drug, a substrate, kinases, and adenosine triphosphate (ATP). • (2) 2 μL of the substrate, 2 μL of the kinases (the kinases were not added in a negative control group), 4 μL of the compounds to be tested or the positive drug (4 μL of a buffer was added in a positive control group, and 6 μL of a buffer was added in the negative control group), and 2 μL of the ATP were sequentially added into each well of a 384-well microplate, and the microplate was sealed with a membrane and then centrifuged for uniform mixing. • (3) According to different types of the kinases, incubation was performed in an incubator at 37° C. for a specific time. • (4) A detection solution was formulated using XL-665, an antibody, and a detection buffer, 10 µL of the detection solution was added into each well, the microplate was sealed with a membrane and then centrifuged for uniform mixing, and standing was performed at room temperature for 1 hour. • (5) Fluorescence value intensities F1 and F2 at wavelengths of 620 nm and 665 nm were measured using a multifunctional microplate tester, respectively. A signal ratio was calculated as F2/F1×10000, and then an IC50 value was calculated using Graphpad Prism 8 software.

TRKA = TRKA (Homo sapiens, UniProt P04629); experiment: HTRF KinEASE kinase assay, TRKA (kinase selectivity); settings: HTRF KinEASE kit, 3 duplicate wells; read-out: TRKA IC50
Protocol: as §1

PAK4 = PAK4 (Homo sapiens, UniProt O96013); experiment: HTRF KinEASE kinase assay, PAK4 (kinase selectivity); settings: HTRF KinEASE kit, 3 duplicate wells; read-out: PAK4 IC50
Protocol: as §1

IKKβ = target: T1, IKKβ (Homo sapiens, UniProt O14920); experiment: HTRF KinEASE kinase assay, IKKβ (kinase selectivity); settings: HTRF KinEASE kit, 3 duplicate wells; read-out: IKKβ IC50
T1 sequence (O14920 1-756): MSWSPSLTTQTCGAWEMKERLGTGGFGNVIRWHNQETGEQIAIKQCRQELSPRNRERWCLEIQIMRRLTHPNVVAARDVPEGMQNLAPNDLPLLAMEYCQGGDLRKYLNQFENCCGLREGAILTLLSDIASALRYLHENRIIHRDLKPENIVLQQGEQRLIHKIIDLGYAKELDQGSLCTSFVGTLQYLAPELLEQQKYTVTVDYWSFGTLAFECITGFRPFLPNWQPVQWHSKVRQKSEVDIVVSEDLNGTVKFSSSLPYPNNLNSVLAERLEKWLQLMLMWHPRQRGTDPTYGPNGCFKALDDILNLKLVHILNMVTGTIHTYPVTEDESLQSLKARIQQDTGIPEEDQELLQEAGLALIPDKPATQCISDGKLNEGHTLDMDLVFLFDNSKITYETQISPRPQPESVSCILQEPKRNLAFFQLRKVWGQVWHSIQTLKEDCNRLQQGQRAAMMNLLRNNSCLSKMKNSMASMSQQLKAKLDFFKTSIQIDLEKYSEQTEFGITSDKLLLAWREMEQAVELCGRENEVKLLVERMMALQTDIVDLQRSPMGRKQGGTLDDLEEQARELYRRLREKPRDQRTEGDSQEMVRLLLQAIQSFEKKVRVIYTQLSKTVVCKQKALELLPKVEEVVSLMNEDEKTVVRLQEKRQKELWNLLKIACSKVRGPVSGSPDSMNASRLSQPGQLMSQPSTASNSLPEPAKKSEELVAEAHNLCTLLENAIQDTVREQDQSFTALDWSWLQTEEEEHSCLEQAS
Protocol: as §1

ROCK2 = ROCK2 (Homo sapiens, UniProt O75116); experiment: HTRF KinEASE kinase assay, ROCK2 (kinase selectivity); settings: HTRF KinEASE kit, 3 duplicate wells; read-out: ROCK2 IC50
Protocol: as §1

PKCδ = PKCδ (Homo sapiens, UniProt Q05655); experiment: HTRF KinEASE kinase assay, PKCδ (kinase selectivity); settings: HTRF KinEASE kit, 3 duplicate wells; read-out: PKCδ IC50
Protocol: as §1

Chain of PIM-1 kinase (P11309 whole entry): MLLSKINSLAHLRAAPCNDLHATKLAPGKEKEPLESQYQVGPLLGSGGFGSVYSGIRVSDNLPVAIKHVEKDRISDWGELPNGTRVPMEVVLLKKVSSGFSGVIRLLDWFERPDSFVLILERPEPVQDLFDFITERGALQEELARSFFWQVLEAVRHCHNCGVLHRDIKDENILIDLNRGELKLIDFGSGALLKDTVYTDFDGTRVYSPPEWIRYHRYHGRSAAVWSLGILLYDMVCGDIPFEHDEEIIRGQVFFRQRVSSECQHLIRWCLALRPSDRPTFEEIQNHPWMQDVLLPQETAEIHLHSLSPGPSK
Chain of PAK4 (O96013 whole entry, species assumed): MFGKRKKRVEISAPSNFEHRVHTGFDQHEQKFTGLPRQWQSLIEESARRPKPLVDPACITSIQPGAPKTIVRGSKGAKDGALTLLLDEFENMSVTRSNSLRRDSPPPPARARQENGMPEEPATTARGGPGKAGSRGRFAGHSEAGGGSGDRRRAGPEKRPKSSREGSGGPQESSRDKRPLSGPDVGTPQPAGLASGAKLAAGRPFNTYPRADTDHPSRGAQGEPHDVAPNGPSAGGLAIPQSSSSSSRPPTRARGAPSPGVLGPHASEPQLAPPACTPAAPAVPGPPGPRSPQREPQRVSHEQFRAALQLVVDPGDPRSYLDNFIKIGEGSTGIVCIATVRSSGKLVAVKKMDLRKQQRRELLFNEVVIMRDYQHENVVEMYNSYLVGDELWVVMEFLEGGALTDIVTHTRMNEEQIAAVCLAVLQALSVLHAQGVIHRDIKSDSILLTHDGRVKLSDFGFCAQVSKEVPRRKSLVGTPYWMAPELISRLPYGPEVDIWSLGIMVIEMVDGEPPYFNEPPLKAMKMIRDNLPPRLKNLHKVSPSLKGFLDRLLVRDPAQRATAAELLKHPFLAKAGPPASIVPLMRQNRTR
Chain of PKCδ (Q05655 whole entry): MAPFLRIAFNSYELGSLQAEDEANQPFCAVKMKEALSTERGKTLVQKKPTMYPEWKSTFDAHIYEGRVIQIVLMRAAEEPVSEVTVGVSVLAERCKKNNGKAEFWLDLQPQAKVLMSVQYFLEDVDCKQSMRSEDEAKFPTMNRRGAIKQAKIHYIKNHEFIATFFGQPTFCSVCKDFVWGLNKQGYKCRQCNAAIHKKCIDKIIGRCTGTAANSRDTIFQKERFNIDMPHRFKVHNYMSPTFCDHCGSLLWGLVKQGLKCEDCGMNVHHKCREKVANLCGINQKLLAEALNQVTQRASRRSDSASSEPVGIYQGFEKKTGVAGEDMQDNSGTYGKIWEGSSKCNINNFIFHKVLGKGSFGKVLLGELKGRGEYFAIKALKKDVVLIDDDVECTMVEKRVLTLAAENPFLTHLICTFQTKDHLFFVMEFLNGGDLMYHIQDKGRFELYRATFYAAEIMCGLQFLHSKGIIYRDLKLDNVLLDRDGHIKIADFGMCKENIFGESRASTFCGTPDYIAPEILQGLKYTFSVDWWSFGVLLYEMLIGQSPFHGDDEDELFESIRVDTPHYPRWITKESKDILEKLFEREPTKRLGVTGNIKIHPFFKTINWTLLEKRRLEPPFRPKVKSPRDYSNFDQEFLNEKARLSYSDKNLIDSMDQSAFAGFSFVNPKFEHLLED
Chain of TRKA (P04629 33-796, species assumed): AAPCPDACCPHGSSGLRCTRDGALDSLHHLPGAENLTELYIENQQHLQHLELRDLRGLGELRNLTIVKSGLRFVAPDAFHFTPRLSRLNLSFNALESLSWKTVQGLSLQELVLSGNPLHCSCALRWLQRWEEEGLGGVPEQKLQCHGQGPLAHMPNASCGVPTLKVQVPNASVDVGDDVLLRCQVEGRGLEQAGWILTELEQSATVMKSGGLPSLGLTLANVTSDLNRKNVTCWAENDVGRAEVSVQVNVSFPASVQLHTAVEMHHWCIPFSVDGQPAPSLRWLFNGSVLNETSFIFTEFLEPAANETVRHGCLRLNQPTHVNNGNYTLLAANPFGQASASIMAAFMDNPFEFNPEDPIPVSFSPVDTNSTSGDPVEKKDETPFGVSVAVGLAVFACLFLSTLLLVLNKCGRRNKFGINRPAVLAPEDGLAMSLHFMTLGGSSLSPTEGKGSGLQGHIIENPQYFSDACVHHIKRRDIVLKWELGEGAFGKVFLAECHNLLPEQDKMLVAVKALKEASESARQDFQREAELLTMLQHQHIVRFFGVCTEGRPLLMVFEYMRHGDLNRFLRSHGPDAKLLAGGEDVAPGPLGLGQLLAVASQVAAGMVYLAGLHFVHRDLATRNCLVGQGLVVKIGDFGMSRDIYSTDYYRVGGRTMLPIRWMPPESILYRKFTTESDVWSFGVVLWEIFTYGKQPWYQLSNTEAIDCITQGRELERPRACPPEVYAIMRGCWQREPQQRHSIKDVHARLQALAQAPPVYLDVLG
Chain of ROCK2 (O75116 whole entry, species assumed): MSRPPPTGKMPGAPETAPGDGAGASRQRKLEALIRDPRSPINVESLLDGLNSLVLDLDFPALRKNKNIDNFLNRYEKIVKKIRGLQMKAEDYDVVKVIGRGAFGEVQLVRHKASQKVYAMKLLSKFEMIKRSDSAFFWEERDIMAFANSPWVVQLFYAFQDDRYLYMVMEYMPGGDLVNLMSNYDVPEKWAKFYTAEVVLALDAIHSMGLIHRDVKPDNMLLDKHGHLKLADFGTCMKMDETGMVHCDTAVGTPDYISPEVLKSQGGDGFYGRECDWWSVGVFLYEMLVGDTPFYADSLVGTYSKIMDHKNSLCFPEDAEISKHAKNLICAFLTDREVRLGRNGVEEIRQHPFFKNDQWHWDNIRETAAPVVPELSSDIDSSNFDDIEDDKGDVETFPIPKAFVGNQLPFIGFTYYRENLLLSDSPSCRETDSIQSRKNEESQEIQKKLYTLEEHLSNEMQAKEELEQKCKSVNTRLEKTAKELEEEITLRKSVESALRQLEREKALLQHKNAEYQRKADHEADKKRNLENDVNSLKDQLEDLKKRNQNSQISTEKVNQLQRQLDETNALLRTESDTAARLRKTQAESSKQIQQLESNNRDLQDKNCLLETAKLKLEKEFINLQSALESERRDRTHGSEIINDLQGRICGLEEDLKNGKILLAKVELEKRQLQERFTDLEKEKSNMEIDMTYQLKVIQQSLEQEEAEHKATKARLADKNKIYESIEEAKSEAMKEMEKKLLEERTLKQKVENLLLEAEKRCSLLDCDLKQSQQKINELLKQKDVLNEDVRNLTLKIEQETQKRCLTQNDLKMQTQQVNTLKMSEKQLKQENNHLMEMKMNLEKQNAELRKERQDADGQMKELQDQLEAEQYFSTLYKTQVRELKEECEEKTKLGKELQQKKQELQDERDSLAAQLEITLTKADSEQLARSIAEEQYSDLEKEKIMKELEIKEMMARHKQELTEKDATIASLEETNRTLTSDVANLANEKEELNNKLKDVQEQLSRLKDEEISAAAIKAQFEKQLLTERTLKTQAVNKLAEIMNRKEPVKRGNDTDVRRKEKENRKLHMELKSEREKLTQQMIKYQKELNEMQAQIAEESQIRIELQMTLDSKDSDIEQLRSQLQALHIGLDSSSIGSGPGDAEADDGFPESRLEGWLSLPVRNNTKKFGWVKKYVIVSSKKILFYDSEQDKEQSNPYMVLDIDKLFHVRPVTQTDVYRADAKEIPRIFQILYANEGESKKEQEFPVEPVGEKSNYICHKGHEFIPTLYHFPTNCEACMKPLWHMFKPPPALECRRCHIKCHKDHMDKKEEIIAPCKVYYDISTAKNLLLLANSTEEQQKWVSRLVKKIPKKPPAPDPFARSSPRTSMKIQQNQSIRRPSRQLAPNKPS
Chain of TRKB (Q16620 32-822, species assumed): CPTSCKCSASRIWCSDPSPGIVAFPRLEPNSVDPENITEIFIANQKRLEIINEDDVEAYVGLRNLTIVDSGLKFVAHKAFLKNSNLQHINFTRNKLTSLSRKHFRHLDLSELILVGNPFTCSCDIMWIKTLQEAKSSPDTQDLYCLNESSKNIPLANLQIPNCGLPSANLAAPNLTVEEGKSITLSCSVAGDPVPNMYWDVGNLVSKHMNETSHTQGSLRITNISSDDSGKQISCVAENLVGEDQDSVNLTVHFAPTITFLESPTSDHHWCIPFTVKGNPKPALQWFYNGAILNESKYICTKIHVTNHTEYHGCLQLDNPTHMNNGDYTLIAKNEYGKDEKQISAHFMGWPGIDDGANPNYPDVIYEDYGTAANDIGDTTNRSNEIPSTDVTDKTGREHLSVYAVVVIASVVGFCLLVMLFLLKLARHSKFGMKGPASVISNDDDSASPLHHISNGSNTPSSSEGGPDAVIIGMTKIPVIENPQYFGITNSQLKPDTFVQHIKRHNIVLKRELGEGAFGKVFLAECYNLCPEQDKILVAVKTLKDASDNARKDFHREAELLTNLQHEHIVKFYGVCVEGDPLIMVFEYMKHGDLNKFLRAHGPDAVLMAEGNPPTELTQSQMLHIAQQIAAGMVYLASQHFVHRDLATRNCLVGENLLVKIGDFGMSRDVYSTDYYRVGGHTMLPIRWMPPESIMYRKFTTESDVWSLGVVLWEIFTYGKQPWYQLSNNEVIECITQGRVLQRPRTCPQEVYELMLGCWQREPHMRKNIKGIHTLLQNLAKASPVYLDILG

pIC50 (PKCη): 7.14 | pIC50 (TRKB): 7.87 | pIC50 (PIM-1 kinase; HTRF KinEASE kit, 3 duplicate wells, read-out: PIM-1 kinase inhibitory activity (IC50)): 8.23 | pIC50 (TRKA): 8.40 | pIC50 (PAK4): 6.62 | pIC50 (IKKβ): < 6.00 | pIC50 (ROCK2): 6.25 | pIC50 (PKCδ): 7.98
Compound: CO[C@@H]1[C@H](N(C)C(=O)CCC(=O)NO)C[C@H]2O[C@]1(C)n1c3ccccc3c3c4c(c5c6ccccc6n2c5c31)C(=O)NC4=O [Compound 17]
selectivity for the PIM-1 kinase (in words) (PIM-1 kinase; versus TRKA, TRKB, FLT3, PKCδ, PKCε, PKCη, PAK4, PLK1, ROCK2, IKKβ): excellent selective inhibitory effect on the PIM-1 kinase; also recorded: excellent selective inhibition ability against the PIM-1 kinase
